Test results as given in ChEMBL document CHEMBL1155809, “Design, synthesis, and antihepatocellular carcinoma activity of nitric oxide releasing derivatives of oleanolic acid” (J Med Chem, 2008).
Calls of active or inactive are those of the source. The calls are words filed in the database; no cut-off is given here.

Tests used:
[1] = system: HeLa; experiment: Cytotoxicity against human HeLa cells assessed as cell death by lactate dehydrogenase release assay; format: functional, cell-based
[2] = system: HEK293; experiment: Cytotoxicity against HEK293 cells assessed as cell death by lactate dehydrogenase release assay; format: functional, cell-based; settings: Homo sapiens
[3] = system: PC-3; experiment: Cytotoxicity against human PC3 cells assessed as cell death by lactate dehydrogenase release assay; format: functional, cell-based
[4] = system: HepG2; experiment: Cytotoxicity against human HepG2 cells assessed as levels of nitric oxide production at 100 uM after 30 to 300 mins by colorimetric assay; format: functional, cell-based
[5] = Antitumor activity against human Hep3B cells xenografted in non-obese diabetic SCID mouse assessed as reduction in tumor size at 15 mg/kg, ip after 35 days; format: functional, Hep 3B2; settings: route intraperitoneal
[6] = system: HepG2; experiment: Cytotoxicity against human HepG2 cells assessed as cell death at 1 uM after 24 hrs by lactate dehydrogenase release assay; format: functional
[7] = Cytotoxicity against human Hep3B cells assessed as cell death at 0.001 uM after 24 hrs by lactate dehydrogenase release assay; format: functional, Hep 3B2
[8] = Cytotoxicity against human Hep3B cells assessed as cell death at 0.1 uM after 24 hrs by lactate dehydrogenase release assay; format: functional, Hep 3B2
[9] = system: HeLa; experiment: Cytotoxicity against human HeLa cells assessed as levels of nitric oxide production at 100 uM after 30 to 300 mins by colorimetric assay; format: functional, cell-based
[10] = system: HEK293; experiment: Cytotoxicity against human HEK293 cells assessed as levels of nitric oxide production at 100 uM after 30 to 300 mins by colorimetric assay; format: functional, cell-based
[11] = Cytotoxicity against human Hep3B cells assessed as cell death at 0.01 uM after 24 hrs by lactate dehydrogenase release assay; format: functional, Hep 3B2
[12] = system: MCF7; experiment: Cytotoxicity against human MCF7 cells assessed as cell death by lactate dehydrogenase release assay; format: functional, cell-based
[13] = Cytotoxicity against human Hep3B cells assessed as cell death at 1 uM after 24 hrs by lactate dehydrogenase release assay; format: functional, Hep 3B2
[14] = system: PC-3; experiment: Cytotoxicity against human PC3 cells assessed as levels of nitric oxide production at 100 uM after 30 to 300 mins by colorimetric assay; format: functional, cell-based
[15] = system: HepG2; experiment: Cytotoxicity against human HepG2 cells assessed as cell death at 0.1 uM after 24 hrs by lactate dehydrogenase release assay; format: functional
[16] = system: Hep 3B2; experiment: Cytotoxicity against human Hep3B cells assessed as levels of nitric oxide production at 100 uM after 30 to 300 mins by colorimetric assay; format: functional, cell-based
[17] = system: Mus musculus; experiment: Toxicity in BALB/c mouse at 15 to 100 mg/kg, ip daily for 3 days assessed after 15 days; format: organism-based; parameters: dose 15-100 mg/kg, route intraperitoneal; settings: in vivo, 360 h
[18] = system: HepG2; experiment: Cytotoxicity against human HepG2 cells assessed as cell death at 0.01 uM after 24 hrs by lactate dehydrogenase release assay; format: functional
[19] = Antitumor activity against human Hep3B cells xenografted in non-obese diabetic SCID mouse assessed as reduction in tumor weight at 15 mg/kg, ip after 35 days; format: functional, Hep 3B2; settings: route intraperitoneal
[20] = system: HepG2; experiment: Cytotoxicity against human HepG2 cells assessed as cell death at 0.001 uM after 24 hrs by lactate dehydrogenase release assay; format: functional
[21] = system: MCF7; experiment: Cytotoxicity against human MCF7 cells assessed as levels of nitric oxide production at 100 uM after 30 to 300 mins by colorimetric assay; format: functional, cell-based

Structure (SMILES)	Activity [1]	Activity [2]	Activity [3]	Activity [4]	Activity [5] [mm3]	Activity [6] [%]	Activity [7] [%]	Activity [8] [%]	Activity [9]	Activity [10]	Activity [11] [%]	Activity [12]	Activity [13] [%]	Activity [14]	Activity [15] [%]	Activity [16]	Activity [17]	Activity [18] [%]	Activity [20] [%]	Activity [21]	further results
CC(CCOc1no[n+]([O-])c1S(=O)(=O)c1ccccc1)OC(=O)CCC(=O)O[C@H]1CC[C@]2(C)[C@H]3CC=C4[C@@H]5CC(C)(C)CC[C@]5(C(=O)O)CC[C@@]4(C)[C@]3(C)CC[C@H]2C1(C)C (stereo partly specified)	inactive	inactive	inactive	Active	232	100	4.7	92.4	inactive	inactive	14.23	inactive	100	inactive	93.5	Active	Non-toxic	13.34	1.7	inactive	Activity [19]: 0.262 g
CC1(C)CC[C@]2(C(=O)O)CC[C@]3(C)C(=CC[C@@H]4[C@@]5(C)CC[C@H](O)C(C)(C)[C@@H]5CC[C@]43C)[C@@H]2C1 [OLEANOLIC_ACID]	inactive	inactive	inactive	Active	668	0	0	0	inactive	inactive	0	inactive	0	inactive	0	Active	Non-toxic	0	0	inactive	Activity [19]: 0.961 g
CC1(C)CC[C@]2(C(=O)O)CC[C@]3(C)C(=CC[C@@H]4[C@@]5(C)CC[C@H](OC(=O)CCC(=O)OCCOCCOc6no[n+]([O-])c6S(=O)(=O)c6ccccc6)C(C)(C)[C@@H]5CC[C@]43C)[C@@H]2C1	inactive	inactive	inactive	Active	–	95.63	0	56.43	inactive	inactive	9.78	inactive	88.65	inactive	67.96	Active	–	17.32	2.7	inactive	–
CC1(C)CC[C@]2(C(=O)O)CC[C@]3(C)C(=CC[C@@H]4[C@@]5(C)CC[C@H](OC(=O)CCC(=O)OCc6c(-c7ccccc7)no[n+]6[O-])C(C)(C)[C@@H]5CC[C@]43C)[C@@H]2C1	inactive	inactive	inactive	Active	–	0	0	0	inactive	inactive	0	inactive	0	inactive	0	Active	–	0	0	inactive	–
C[C@H](CCC(=O)O)[C@H]1CC[C@H]2[C@@H]3[C@@H](O)C[C@@H]4C[C@H](O)CC[C@]4(C)[C@H]3CC[C@]12C [URSODIOL]	inactive	inactive	inactive	Active	–	0	0	0	inactive	inactive	0	inactive	0	inactive	0	Active	–	0	0	inactive	–
CC1(C)CC[C@]2(C(=O)O)CC[C@]3(C)C(=CC[C@@H]4[C@@]5(C)CC[C@H](OC(=O)CCC(=O)OCCCCOc6no[n+]([O-])c6S(=O)(=O)c6ccccc6)C(C)(C)[C@@H]5CC[C@]43C)[C@@H]2C1	inactive	inactive	inactive	Active	–	98.16	0	61.18	inactive	inactive	7.52	inactive	100	inactive	56.35	Active	–	10.96	2.6	inactive	–
CC(CCOc1no[n+]([O-])c1S(=O)(=O)c1ccccc1)OC(=O)[C@]12CCC(C)(C)C[C@H]1C1=CC[C@@H]3[C@@]4(C)CC[C@H](O)C(C)(C)[C@@H]4CC[C@@]3(C)[C@]1(C)CC2 (stereo partly specified)	inactive	inactive	inactive	Active	289	89.21	0	63.51	inactive	inactive	11.05	inactive	92.18	inactive	55.11	Active	Non-toxic	6.67	0	inactive	Activity [19]: 0.332 g
CC1(C)CC[C@]2(C(=O)O)CC[C@]3(C)C(=CC[C@@H]4[C@@]5(C)CC[C@H](OC(=O)CCC(=O)OCC#CCOc6no[n+]([O-])c6S(=O)(=O)c6ccccc6)C(C)(C)[C@@H]5CC[C@]43C)[C@@H]2C1	inactive	inactive	inactive	Active	–	67.41	0	19.61	inactive	inactive	8.42	inactive	72.51	inactive	13.68	Active	–	10.07	0	inactive	–
CC1(C)CC[C@]2(C(=O)O)CC[C@]3(C)C(=CC[C@@H]4[C@@]5(C)CC[C@H](OC(=O)CCC(=O)OCc6cccc(Oc7no[n+]([O-])c7S(=O)(=O)c7ccccc7)c6)C(C)(C)[C@@H]5CC[C@]43C)[C@@H]2C1	inactive	inactive	inactive	Active	–	0	0	0	inactive	inactive	0	inactive	0	inactive	0	Active	–	0	0	inactive	–
